Measured values reported in PubChem BioAssay AID179 (DTP/NCI, 2004).
Several values for one entry are separate records, joined by “and”; a condition that tells them apart may be missing. Equal values may be shown once. Activity calls are given as the source filed them.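 The calls were made as follows: active = compounds giving half or more protection of infected cells from virus-caused growth loss, again on retest; inactive = the rest.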

Tested on: CEM cells HIV-1 protection, formazan growth assay
Assay: NCI AIDS Antiviral Assay
Conditions: for IC50: measured here: growth of uninfected CEM cells
Procedure, shortened: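 Five concentrations of each compound were applied to infected and uninfected human CEM cells. Protection from HIV-1 was judged from growth measured with a soluble formazan assay.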

SMILES | EC50 [µM] | IC50 | outcome
COC1=NC(NC2OCC(O)C(O)C2O)=C(NC(C)=O)CN1C (stereo unspecified) | > 200 | > 200 µM | –
C=C[C@@]1(O)CCCC[C@@H]1CC(Sc1ccccc1)Sc1ccccc1 | > 200 | 19.5 µM | –
CC12C(=C(C#N)C(=N)N1c1ccc(Cl)c(Cl)c1)C=C(O)CC2SCCS(=O)(=O)O (stereo unspecified) | 33.1 | 67.6 µM | –
CCOP(=O)(Cc1nc(C#N)c(N)o1)OCC | > 200 | > 200 µM | –
N=C1C(=N)c2ccccc2-c2ccccc21.[Cl-].[Rh+3].c1cnc2c(c1)ccc1cccnc12.c1cnc2c(c1)ccc1cccnc12 | – | – | inactive
c1ccc(C2=C(c3ccccc3)Sc3nnc(CCCCCCCCc4nnc5n4NC(c4ccccc4)=C(c4ccccc4)S5)n3N2)cc1 | > 200 | 89.1 µM | –
CCCCCc1cc(CCCC)sc1-c1ccco1 | > 200 | 145 µM | –
NC(=O)NN=C1Cc2ccccc2C1 | > 200 | > 200 µM | –
COC(=O)[C@@H]1CN(C(C)=O)C(=O)N1C(=O)OCc1ccccc1 | > 200 | > 200 µM | –
O=C1NC(=O)C(=Nc2cccc3c(=O)[nH][nH]c(=O)c23)C(c2nc3ccccc3s2)C1=O (stereo unspecified) | – | – | inactive
Cc1cn(C2CC(N)C(CN)O2)c(=O)[nH]c1=O (stereo unspecified) | > 200 | > 200 µM | –
OC1c2ccccc2CCC1C(O)(C(F)(F)F)C(F)(F)F (stereo unspecified) | > 200 | 85.1 µM | –
COC(=O)[C@@H]1[C@@H]2NC(=S)N[C@@]1(C)Oc1ccccc12 | – | – | inactive
CC(C)(Cc1ccccc1)N1C(=O)N1C(C)(C)Cc1ccccc1 | > 200 | 28.8 µM | –
C[N+]12CC3C4CC(C3C1)C2C4 (stereo unspecified) | > 912 | > 912 µM | –
Cc1nc(NC(=S)NC(=O)c2ccc(Cl)c(Cl)c2)sc1C(=O)/C=C/c1ccccc1[N+](=O)[O-] | > 19.1 | > 19.1 µM | –
Oc1ccc(-c2nc3ccccc3s2)c(O)c1 | > 148 | 27.5 µM | –
COc1c(-c2ccc3c(c2)OCO3)oc2cc(O)cc(O)c2c1=O | > 200 | 115 µM | –

SMILES | EC50 [µM] | IC50 | outcome
CNC(=O)C(C)NC(=O)C(Cc1ccccc1)NC(=O)c1ccccc1 (stereo unspecified) | > 200 | > 200 µM | –
COc1cccc(C(=O)N[C@@H]2[C@H](O)[C@@H](CO)O[C@H]2n2cnc3c(N)ncnc32)c1 | > 200 | > 200 µM | –
Nc1c2c(nc3ccccc13)CCCC2 (tested in a mixture with another compound) | > 4170 | 25.7 µM and 39.8 µM | –
CC1=NN(C(=O)c2ccc([N+](=O)[O-])cc2)C(=O)C1N=Nc1ccccc1C(=O)O (stereo unspecified) | – | – | inactive
O=C(/C=C/c1ccsc1)c1ccc(Cl)cc1 | > 200 | 3.31 µM | –
NC(=O)c1ncn(CC2(COC(=O)c3ccccc3)CCC2)n1 | > 200 | > 200 µM | –
CC1(C)C(=O)C2(C(=O)O)CCC1C2 (stereo unspecified) | > 200 | > 200 µM | –
O=C1c2ccccc2CCC1(Br)C(Br)c1ccccc1 (stereo unspecified) | > 200 | 5.37 µM | –
CCOC(=O)N/N=C/C1=NN(C(=O)OCC)S(=O)C1C (stereo unspecified) | > 200 | > 200 µM | –
O=C1C=C2CC3c4[nH]c5ccccc5c4CCN3CC2CC1 (stereo unspecified) | > 85.1 | 43.7 µM | –
COc1nc(NC2OCC(OC(C)=O)C(OC(C)=O)C2OC(C)=O)c(C(=O)CCl)c(=O)n1C (stereo unspecified) | – | – | inactive
CNCCC=C1c2ccccc2CCc2ccccc21 | > 200 | 28.8 µM and 33.1 µM | –
NCc1ccccc1C1CSCSC1 | > 575 | 288 µM | –
CN1C(=O)N/C(=C\c2ccc(S(=O)(=O)N/N=C\C(O)C(O)C(O)CO)cc2)C1=O (stereo unspecified) | > 200 | > 200 µM | –
CCOC(=O)C(=CNC(=S)c1ccncc1)C(=O)OCC | > 200 | > 200 µM | –
Cc1ccc(C(=O)O)cc1S(=O)(=O)Nn1cnc2ccc(S(=O)(=O)Nc3ccccc3C(=O)O)cc2c1=O | > 200 | > 200 µM | –
Cc1ccc(S(=O)(=O)OC2CSSCC2OS(=O)(=O)c2ccc(C)cc2)cc1 (stereo unspecified) | – | – | inactive
CC(NC(=O)c1ccccc1SC(=O)CCC[n+]1ccccc1)C(N)=O (stereo unspecified) | 2.24 | 19.1 µM | –
